Results: US11034672B1, “Tyrosine kinase inhibitor compositions, methods of making and methods of use” (Black Diamond Therapeutics, Inc., priority 2018, dated 2021)

Experiments:
Type in all cases: cell-based
[1] = molecular target: T1, HER2 YVMA (Homo sapiens, UniProt P04626, INS775YVMA); experiment: BaF3 cell proliferation assay, HER2 YVMA (Table B); details: potency code, 3 days, CellTiterGlo, read-out: HER2 YVMA (Activity for Inhibiting HER2)
T1 construct: expressed in transfected cells; host or cells: BaF3 (murine pro-B)

[2] = molecular target: T2, EGFR V3 (Homo sapiens, UniProt P00533, DELINS30-297G); experiment: Activity for inhibiting EGFR (Table A), EGFR V3 (EGFR-Viii); details: read-out: EGFR V3, potency code (IC50)
T2 construct: expressed in transfected cells; host or cells: BaF3 (murine pro-B), retroviral pMXs-IRES-Blasticidin
T2 sequence (P00533 with tags, fused parts or gaps DELINS30-297G): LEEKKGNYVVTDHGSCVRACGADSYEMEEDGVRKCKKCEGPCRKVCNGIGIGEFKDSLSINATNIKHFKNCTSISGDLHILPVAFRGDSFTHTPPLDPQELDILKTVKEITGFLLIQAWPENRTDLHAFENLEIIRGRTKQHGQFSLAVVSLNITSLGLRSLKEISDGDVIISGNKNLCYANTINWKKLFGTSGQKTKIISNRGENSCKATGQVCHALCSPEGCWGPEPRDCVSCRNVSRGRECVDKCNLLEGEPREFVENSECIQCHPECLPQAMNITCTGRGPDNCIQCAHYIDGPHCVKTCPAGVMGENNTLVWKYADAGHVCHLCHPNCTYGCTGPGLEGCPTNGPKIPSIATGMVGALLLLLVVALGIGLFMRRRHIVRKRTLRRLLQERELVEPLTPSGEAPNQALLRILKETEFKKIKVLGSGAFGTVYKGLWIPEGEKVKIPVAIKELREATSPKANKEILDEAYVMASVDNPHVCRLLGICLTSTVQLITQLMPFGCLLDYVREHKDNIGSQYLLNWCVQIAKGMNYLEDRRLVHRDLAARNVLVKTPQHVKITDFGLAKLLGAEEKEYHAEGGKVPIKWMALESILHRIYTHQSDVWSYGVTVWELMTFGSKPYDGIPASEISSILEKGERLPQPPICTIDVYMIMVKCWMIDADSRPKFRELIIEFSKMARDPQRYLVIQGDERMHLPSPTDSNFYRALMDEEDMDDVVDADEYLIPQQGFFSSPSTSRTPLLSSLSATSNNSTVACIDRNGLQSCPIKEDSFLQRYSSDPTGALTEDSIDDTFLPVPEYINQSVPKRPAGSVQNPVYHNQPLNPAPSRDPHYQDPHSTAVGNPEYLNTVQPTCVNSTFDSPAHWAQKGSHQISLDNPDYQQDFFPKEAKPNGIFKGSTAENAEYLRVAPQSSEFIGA

[3] = molecular target: T3, EGFR WT (Homo sapiens, UniProt P00533); experiment: Activity for inhibiting EGFR (Table A), EGFR WT; details: read-out: EGFR WT, potency code (IC50)
T3 sequence (P00533 25-1210 N540K): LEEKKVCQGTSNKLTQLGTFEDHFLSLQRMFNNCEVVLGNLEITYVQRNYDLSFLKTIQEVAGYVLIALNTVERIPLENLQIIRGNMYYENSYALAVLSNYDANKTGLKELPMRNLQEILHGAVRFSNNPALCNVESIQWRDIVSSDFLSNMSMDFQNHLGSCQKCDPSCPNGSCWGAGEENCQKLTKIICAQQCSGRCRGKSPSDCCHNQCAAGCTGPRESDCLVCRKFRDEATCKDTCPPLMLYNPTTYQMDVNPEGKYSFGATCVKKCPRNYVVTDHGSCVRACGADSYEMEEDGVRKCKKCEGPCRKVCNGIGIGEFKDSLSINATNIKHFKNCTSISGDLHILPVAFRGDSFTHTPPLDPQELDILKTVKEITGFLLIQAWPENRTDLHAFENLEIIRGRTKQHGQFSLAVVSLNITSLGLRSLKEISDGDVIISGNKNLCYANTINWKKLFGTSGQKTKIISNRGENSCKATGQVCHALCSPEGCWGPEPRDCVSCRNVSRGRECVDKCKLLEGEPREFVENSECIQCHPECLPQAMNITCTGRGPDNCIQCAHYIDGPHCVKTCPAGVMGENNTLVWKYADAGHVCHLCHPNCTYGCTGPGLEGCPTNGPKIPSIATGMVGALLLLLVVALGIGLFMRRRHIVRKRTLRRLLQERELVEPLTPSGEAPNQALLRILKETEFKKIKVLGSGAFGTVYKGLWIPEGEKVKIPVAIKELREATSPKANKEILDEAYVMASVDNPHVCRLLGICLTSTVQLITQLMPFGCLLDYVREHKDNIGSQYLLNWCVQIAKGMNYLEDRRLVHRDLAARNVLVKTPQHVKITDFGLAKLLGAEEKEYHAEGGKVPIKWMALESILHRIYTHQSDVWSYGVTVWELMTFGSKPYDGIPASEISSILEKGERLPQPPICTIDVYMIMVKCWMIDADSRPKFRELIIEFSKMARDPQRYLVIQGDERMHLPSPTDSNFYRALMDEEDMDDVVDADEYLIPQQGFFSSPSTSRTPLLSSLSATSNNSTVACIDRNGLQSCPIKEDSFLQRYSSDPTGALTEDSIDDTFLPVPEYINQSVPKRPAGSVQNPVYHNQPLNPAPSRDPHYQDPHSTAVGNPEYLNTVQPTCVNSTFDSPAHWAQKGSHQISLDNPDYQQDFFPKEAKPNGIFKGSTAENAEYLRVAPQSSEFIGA

[4] = molecular target: T2, EGFR V3; experiment: BaF3 cell proliferation assay, EGFR V3 (Table A); details: potency code, 3 days, CellTiterGlo, read-out: EGFR V3 (Activity for Inhibiting EGFR)
Summary of the method: (§1)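 EC50 values come from proliferation of IL-3-independent BaF3 lines. These lines were made by two spin infections with retrovirus encoding each mutant, plus polybrene (8 μg/ml). They then underwent one week of 10 μg/ml blasticidin selection and were removed from IL-3.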

[5] = molecular target: T3, EGFR WT; experiment: BaF3 cell proliferation assay, EGFR WT (Table A); details: potency code, 3 days, CellTiterGlo, read-out: EGFR WT (Activity for Inhibiting EGFR)
Summary of the method: as §1

[6] = molecular target: T4, HER2 WT (Homo sapiens, UniProt P04626); experiment: Activity for inhibiting HER2 (Table B), HER2 WT
T4 sequence (P04626 23-1255): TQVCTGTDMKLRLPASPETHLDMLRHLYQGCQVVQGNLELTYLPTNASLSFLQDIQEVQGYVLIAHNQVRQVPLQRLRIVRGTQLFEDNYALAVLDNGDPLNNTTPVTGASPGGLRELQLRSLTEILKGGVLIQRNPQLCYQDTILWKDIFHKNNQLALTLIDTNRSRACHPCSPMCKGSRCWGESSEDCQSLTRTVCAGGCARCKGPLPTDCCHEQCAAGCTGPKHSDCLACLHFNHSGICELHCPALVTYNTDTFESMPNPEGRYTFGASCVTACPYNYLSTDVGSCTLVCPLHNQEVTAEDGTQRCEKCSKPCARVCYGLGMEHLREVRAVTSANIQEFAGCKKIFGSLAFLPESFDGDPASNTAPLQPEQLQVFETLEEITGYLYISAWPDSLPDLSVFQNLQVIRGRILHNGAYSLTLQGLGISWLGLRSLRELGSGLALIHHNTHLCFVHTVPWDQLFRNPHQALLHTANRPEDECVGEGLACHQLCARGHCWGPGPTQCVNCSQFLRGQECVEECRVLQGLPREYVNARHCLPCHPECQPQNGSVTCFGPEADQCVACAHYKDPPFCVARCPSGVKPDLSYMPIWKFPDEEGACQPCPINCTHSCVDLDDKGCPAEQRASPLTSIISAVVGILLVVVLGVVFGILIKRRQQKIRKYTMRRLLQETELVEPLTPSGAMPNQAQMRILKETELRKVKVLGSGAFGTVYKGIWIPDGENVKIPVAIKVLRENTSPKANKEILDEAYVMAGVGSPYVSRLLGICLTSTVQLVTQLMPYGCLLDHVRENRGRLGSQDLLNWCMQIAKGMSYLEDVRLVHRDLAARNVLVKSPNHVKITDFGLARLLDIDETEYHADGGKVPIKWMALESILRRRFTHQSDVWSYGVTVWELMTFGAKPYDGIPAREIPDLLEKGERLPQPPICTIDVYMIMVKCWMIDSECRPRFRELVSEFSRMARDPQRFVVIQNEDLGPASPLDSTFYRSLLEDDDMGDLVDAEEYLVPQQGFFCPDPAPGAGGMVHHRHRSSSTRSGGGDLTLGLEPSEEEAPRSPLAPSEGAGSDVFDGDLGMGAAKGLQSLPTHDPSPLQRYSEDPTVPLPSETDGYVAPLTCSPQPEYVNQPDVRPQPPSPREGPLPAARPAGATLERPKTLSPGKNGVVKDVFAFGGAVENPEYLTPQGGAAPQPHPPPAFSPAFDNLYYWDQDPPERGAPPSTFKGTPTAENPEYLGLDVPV

[7] = molecular target: T4, HER2 WT; experiment: BaF3 cell proliferation assay, HER2 WT (Table B); details: potency code, 3 days, CellTiterGlo, read-out: HER2 WT (Activity for Inhibiting HER2)
[8] = molecular target: T1, HER2 YVMA; experiment: Activity for inhibiting HER2 (Table B), HER2 YVMA; details: read-out: HER2 YVMA, potency code (IC50)
Experimental: (§2) EC50 values were determined with the same application.

[9] = molecular target: T5, HER2 S310F (Homo sapiens, UniProt P04626, S310F); experiment: BaF3 cell proliferation assay, HER2 S310F (Table B); details: potency code, 3 days, CellTiterGlo, read-out: HER2 S310F (Activity for Inhibiting HER2)
T5 construct: expressed in transfected cells; host or cells: BaF3 (murine pro-B)
T5 sequence (P04626 23-1255 S310F): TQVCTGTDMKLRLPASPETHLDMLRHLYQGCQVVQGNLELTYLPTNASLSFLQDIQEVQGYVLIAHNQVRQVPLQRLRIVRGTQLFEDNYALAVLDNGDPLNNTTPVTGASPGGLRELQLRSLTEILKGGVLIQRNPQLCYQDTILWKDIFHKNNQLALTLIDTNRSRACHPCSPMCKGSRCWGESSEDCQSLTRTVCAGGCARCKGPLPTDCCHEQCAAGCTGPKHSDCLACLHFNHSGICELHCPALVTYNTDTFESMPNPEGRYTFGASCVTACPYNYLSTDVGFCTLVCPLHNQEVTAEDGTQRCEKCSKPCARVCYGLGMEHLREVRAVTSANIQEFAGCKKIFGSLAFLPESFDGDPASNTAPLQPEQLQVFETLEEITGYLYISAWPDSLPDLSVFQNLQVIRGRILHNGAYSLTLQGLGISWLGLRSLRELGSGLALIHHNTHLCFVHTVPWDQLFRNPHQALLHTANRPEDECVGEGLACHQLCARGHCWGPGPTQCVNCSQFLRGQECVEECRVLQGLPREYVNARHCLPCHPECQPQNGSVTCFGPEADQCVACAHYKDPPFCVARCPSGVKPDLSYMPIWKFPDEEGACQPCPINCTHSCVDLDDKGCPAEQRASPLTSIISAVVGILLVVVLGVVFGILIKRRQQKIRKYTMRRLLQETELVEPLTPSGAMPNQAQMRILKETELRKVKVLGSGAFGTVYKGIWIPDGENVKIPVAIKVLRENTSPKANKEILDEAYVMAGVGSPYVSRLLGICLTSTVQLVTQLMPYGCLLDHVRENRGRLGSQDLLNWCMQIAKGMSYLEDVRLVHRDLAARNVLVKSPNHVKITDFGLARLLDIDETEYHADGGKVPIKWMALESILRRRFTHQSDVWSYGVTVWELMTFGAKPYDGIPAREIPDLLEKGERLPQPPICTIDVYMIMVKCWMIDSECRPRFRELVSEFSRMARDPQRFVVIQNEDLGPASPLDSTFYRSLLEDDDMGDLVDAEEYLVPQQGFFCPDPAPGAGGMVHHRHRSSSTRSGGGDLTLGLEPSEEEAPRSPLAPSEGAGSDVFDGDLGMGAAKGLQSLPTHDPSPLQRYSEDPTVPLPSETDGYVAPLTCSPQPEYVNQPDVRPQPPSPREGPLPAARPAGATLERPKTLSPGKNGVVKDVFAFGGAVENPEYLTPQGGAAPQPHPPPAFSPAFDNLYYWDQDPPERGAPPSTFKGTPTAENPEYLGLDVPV

[10] = molecular target: T5, HER2 S310F; experiment: Activity for inhibiting HER2 (Table B), HER2 S310F; details: read-out: HER2 S310F, potency code (IC50)
Experimental: as §2

[11] = Table B, read-out: HER2 WT, potency code (IC50)
[12] = text lists of compounds, read-out: IC50 value for inhibiting wild-type HER2

SMILES | IC50 [1] | IC50 [2] | IC50 [3] | IC50 [4] | IC50 [5] | IC50 [6, 11] | IC50 [6, 12] | IC50 [7] | IC50 [8] | IC50 [9] | IC50 [10]
C=CC(=O)Nc1cc2c(Nc3ccc(OCc4ccccn4)c(Cl)c3)ncnc2cc1OCCn1ccnc1 [compound 10] | 200 to 300 nM | 50 to 100 nM | > 1000 nM | 50 to 100 nM | > 1000 nM | 10 to 20 nM | ≤ 20 nM | 10 to 20 nM | 200 to 300 nM | 20 to 30 nM | 20 to 30 nM
C=CC(=O)Nc1cc2c(Nc3ccc(OCc4ccccn4)c(Cl)c3)ncnc2cc1N(C)CCCN1CCOCC1 [compound 12] |  | 100 to 200 nM | 500 to 1000 nM | 100 to 200 nM | 500 to 1000 nM | 50 to 100 nM |  | 50 to 100 nM |  | 100 to 200 nM | 100 to 200 nM
C=CC(=O)Nc1cc2c(Nc3ccc(OCc4ccccn4)c(Cl)c3)ncnc2cc1OCC1CCCN1C (stereo not drawn) [compound 14] |  | 30 to 50 nM | 300 to 500 nM | 30 to 50 nM | 300 to 500 nM | 10 to 20 nM | ≤ 20 nM | 10 to 20 nM |  | 50 to 100 nM | 50 to 100 nM
C=CC(=O)Nc1cc2c(Nc3ccc(OCc4ccccn4)c(Cl)c3)ncnc2cc1OC1CCNC1 (stereo not drawn) [compound 15] |  | 200 to 300 nM | 300 to 500 nM | 200 to 300 nM | 300 to 500 nM | 10 to 20 nM | ≤ 20 nM | 10 to 20 nM |  | 100 to 200 nM | 100 to 200 nM
C=CC(=O)Nc1cc2c(Nc3ccc(OCc4ccccn4)c(Cl)c3)ncnc2cc1OC1CCN(C)C1 (stereo not drawn) [compound 16] | 30 to 50 nM | 20 to 30 nM | 200 to 300 nM | 20 to 30 nM | 200 to 300 nM | < 5 nM | ≤ 5 nM | < 5 nM | 30 to 50 nM | 20 to 30 nM | 20 to 30 nM
C=CC(=O)Nc1cc2c(Nc3ccc(OCc4ccccn4)c(Cl)c3)ncnc2cc1O[C@H]1CCN(C)C1 [compound 18] | 50 to 100 nM | 20 to 30 nM | 300 to 500 nM | 20 to 30 nM | 300 to 500 nM | 5 to 10 nM | ≤ 10 nM | 5 to 10 nM | 50 to 100 nM | 20 to 30 nM | 20 to 30 nM
C=CC(=O)Nc1cc2c(Nc3ccc(OCc4cccc(C(F)(F)F)n4)c(Cl)c3)ncnc2cc1OCCN1CCOCC1 [compound 23] |  | 100 to 200 nM | > 1000 nM | 100 to 200 nM | > 1000 nM | 100 to 200 nM |  | 100 to 200 nM |  | 100 to 200 nM | 100 to 200 nM
C=CC(=O)Nc1cc2c(Nc3ccc(OCc4ccccn4)c(Cl)c3)ncnc2cc1OCCN1CCC(OC)C1 (stereo not drawn) [compound 29] | 50 to 100 nM | 20 to 30 nM | 300 to 500 nM | 20 to 30 nM | 300 to 500 nM | < 5 nM | ≤ 5 nM | < 5 nM | 50 to 100 nM | 10 to 20 nM | 10 to 20 nM
C=CC(=O)Nc1cc2c(Nc3ccc(OCc4ccccn4)c(Cl)c3)ncnc2cc1OCCN1CCC(O)C1 (stereo not drawn) [compound 30] | 100 to 200 nM | 30 to 50 nM |  | 30 to 50 nM | 300 to 500 nM | < 5 nM | ≤ 5 nM | < 5 nM | 100 to 200 nM | 10 to 20 nM | 10 to 20 nM
C=CC(=O)Nc1cc2c(Nc3ccc(Oc4cccc(Cl)c4)cc3)ncnc2cc1OCCN1CCOCC1 [compound 37] |  | 100 to 200 nM | > 1000 nM | 100 to 200 nM | > 1000 nM | 50 to 100 nM |  | 50 to 100 nM |  | 50 to 100 nM | 50 to 100 nM
C=CC(=O)Nc1cc2c(Nc3ccc(OCc4ccccn4)c(Cl)c3)ncnc2cc1N1CCN2CCC1C2 (stereo not drawn) [compound 43] |  | 100 to 200 nM | > 1000 nM | 100 to 200 nM | > 1000 nM | 50 to 100 nM |  | 50 to 100 nM |  | 100 to 200 nM | 100 to 200 nM
C=CC(=O)Nc1cc2c(Nc3ccc(OCc4ccccn4)c(Cl)c3)ncnc2cc1N1CC(N2CCOCC2)C1 [compound 44] |  | 100 to 200 nM | 300 to 500 nM | 100 to 200 nM | 300 to 500 nM | 50 to 100 nM |  | 50 to 100 nM |  | 300 to 500 nM | 300 to 500 nM
C=CC(=O)Nc1cc2c(Nc3ccc(OCc4ccccn4)c(Cl)c3)ncnc2cc1N1CCC2(CCN(C)C2)C1 (stereo not drawn) [compound 46] |  | 50 to 100 nM | 300 to 500 nM | 50 to 100 nM | 300 to 500 nM | 20 to 30 nM | ≤ 50 nM | 20 to 30 nM |  | 100 to 200 nM | 100 to 200 nM
C=CC(=O)Nc1cc2c(Nc3ccc(OCc4ccccn4)c(Cl)c3)ncnc2cc1N(C)C1CCN(C)C1 (stereo not drawn) [compound 48] |  | 200 to 300 nM | > 1000 nM | 200 to 300 nM | > 1000 nM | 100 to 200 nM |  | 100 to 200 nM |  | 300 to 500 nM | 300 to 500 nM
C=CC(=O)Nc1cc2c(Nc3ccc(OCc4ccccn4)c(Cl)c3)ncnc2cc1N1CC2CCN(C)C2C1 (stereo not drawn) [compound 49] |  | 100 to 200 nM | > 1000 nM | 100 to 200 nM | > 1000 nM | 50 to 100 nM |  | 50 to 100 nM |  | 100 to 200 nM | 100 to 200 nM
C=CC(=O)Nc1cc2c(Nc3ccc(OCc4ccccn4)cn3)ncnc2cc1OCCN1CCOCC1 [compound 58] |  | 200 to 300 nM | > 1000 nM | 200 to 300 nM | > 1000 nM | 100 to 200 nM |  | 100 to 200 nM |  | 300 to 500 nM | 300 to 500 nM
C=CC(=O)Nc1cc2c(Nc3ccc(OCc4ccccn4)cc3F)ncnc2cc1OC1CCN(C)C1 (stereo not drawn) [compound 59] |  | 30 to 50 nM | 300 to 500 nM | 30 to 50 nM | 300 to 500 nM | 30 to 50 nM | ≤ 50 nM | 30 to 50 nM |  | 100 to 200 nM | 100 to 200 nM
C=CC(=O)Nc1cc2c(Nc3ccc(Oc4ccc(Cl)cc4)cc3)ncnc2cc1OCCN1CCOCC1 [compound 74] |  | 50 to 100 nM | > 1000 nM | 50 to 100 nM | > 1000 nM | 100 to 200 nM |  | 100 to 200 nM |  | 200 to 300 nM | 200 to 300 nM
